Test results: patent publication US4277496A, “Methods of treating mammals suffering from inflammation and pain” (Laboratorios Bago S.A., priority 1980, dated 1981)

What was measured:
[1] = test system: Carrageenin induced edema; assay: Anti-inflammatory Activity (Carrageenin induced edema test); type: in vivo, rat (male Sprague Dawley); conditions: for anti-inflammatory versus antinociceptive action: conclusion in words from Examples 6 and 7; for % Edema Inhibition, 1 hour / % Edema Inhibition, 3 hours / % Edema Inhibition, 5 hours: oral, 30 min before carrageenin, dose mg/kg: ASA 100, XAA 120, XAA ester 196 (eq. 120 XAA), TAA 60, TAA ester 84.5 (eq. 60 TAA); for % Edema Inhibition, 1 hour: 1 hour after carrageenin; for % Edema Inhibition, 3 hours: 3 hours after carrageenin; for % Edema Inhibition, 5 hours: 5 hours after carrageenin
Description: Anti-inflammatory Activity (Carrageenin induced edema test)
Fifteen to twenty male rats of Sprague Dawley strain weighing 150-200 g, were employed for each compound tested. 0.1 ml of 1% carrageenin saline suspension was injected into the subplantar region of the right hind-paw. The test compounds were orally administered 30 minutes prior to the injection of carrageenin and the foot volume was determined 1,3 and 5 hours after the injection of carrageenin. The percent swelling in the foot was obtained by comparing the volume before and after the injection of carrageenin, and the rate of inhibition in the treated animals was calculated.

[2] = test system: response threshold on applying pressure to the tail; assay: Analgesic Activity: Tail pressure test; type: in vivo, mouse (male Rockland); conditions: oral; 15 and 60 min after administration; relative potency (control 0, ASA 1.00); dose mg/kg: ASA 100, XAA 50, XAA ester 74 (eq. 50 XAA), TAA 50, TAA ester 82 (eq. 50 TAA)
Description: Tail pressure test: Ten male mice of Rockland strain weighing 20-25 g were used for each compound tested. The response threshold on applying pressure to the tail was determined with an analgesy meter at 15 and 60 minutes after oral administration of the test compound. The pressure at which a struggle was elicited was read.

[3] = test system: pain threshold for the inflamed feet (carrageenin); assay: Analgesic Activity: Randall-Selitto's method; type: in vivo, mouse (male Rockland); conditions: oral, 30 min before carrageenin; hourly for 3 hours; relative potency (control 0); dose mg/kg: ASA 100, XAA 50, XAA ester 74 (eq. 50 XAA), TAA 50, TAA ester 82 (eq. 50 TAA)
Description: Randall-Selitto's method: Ten male mice of Rockland strain weighing 25 g were used for each compound tested. 0.1 ml of 1% carrageenin saline suspension was injected into the subplantar region of the right foot. The test compounds were orally administered 30 minutes before the injection. At hourly intervals for 3 hours after the carrageenin injection, the pain threshold for the inflammed feet determining was measured the amount of pressure with an analgesy meter.

gastric epithelium = assay: Influence on the gastro-intestinal tract (ulceration, pylorus-ligated, method of Shay et al.); type: in vivo, rat (male Sprague Dawley); conditions: oral, dose mg/kg: phenylbutazone 75, ASA 100, XAA 120, XAA ester 196, TAA 60, TAA ester 84.5; for Increase (of ulceration evaluation): increase over control (distilled water, 3.0), 1 hour; for Evaluation (ulceration of the gastric epithelium): 1 hour after administration, score 0=no hemorrhage sites to 6=perforated ulcer, control 3.0
Description: Influence on the gastro-intestinal tract
Ten male rats of Sprague Dawley strain, weighing 200-300 g were used for each compound tested. According to the method of Shay et al. (Shay, H., Komapov, S. A., Feb. S. S., Meranir, D., Gruenstein, M., Siplet, H. Gastroenterology 5, 43, 1945), under anesthesia, the pylorus was ligated and 4 hours later test compounds were orally administered. The animal was sacrificed 1 hour after compound administration. The stomach was removed and examined for macroscopic damage. The ulceration of the gastric epithelium was evaluated by the following evaluation: 0=no hemorrhage sites; 1=some isolated hemorrhagic sites; 2=redness of the gastric epithelium; 3=1 to 5 small ulcers with a diameter smaller than 3 mm; 4=many small ulcers; 5=ulcers-greater than 3 mm; 6=perforated ulcer.

SMILES | anti-inflammatory versus antinociceptive action [1] | % Edema Inhibition, 1 hour [1] | % Edema Inhibition, 3 hours [1] | % Edema Inhibition, 5 hours [1] | Relative strength, Tail pressure test [2] | Relative strength, Randall-Selitto test [3] | Increase (of ulceration evaluation) (gastric epithelium) | Evaluation (ulceration of the gastric epithelium) (gastric epithelium)
Cc1cccc(Nc2ccccc2C(=O)OCOC(=O)C(C)(C)C)c1C [Pivaloyloxymethyl N-(2',3'-xylyl)anthranylate] | act as anti-inflammatory agents more than as antinociceptive agents | 33.3% | 36.4% | 31.3% | 0.48 | 1.74 | 0.4 | 3.4
Cc1cccc(Nc2ccccc2C(=O)O)c1C [N-(2',3'-xylyl) anthranylic acid (XAA), N-(2',3'-xylyl) anthranylic acid] |  | 19.32% | 24.7% | 23.4% | 0.2 | 1.04 | 1.2 | 4.2
O=C(O)c1ccccc1Nc1cccc(C(F)(F)F)c1 [N-(3'-trifluorotolyl)-anthranylic acid] |  | 24.3% | 29.3% | 28.3% | 0.5 | 5.3 | 1.9 | 4.9
CCCCC1C(=O)N(c2ccccc2)N(c2ccccc2)C1=O [Phenylbutazone] |  |  |  |  |  |  | 2.5 | 5.5
CC(=O)Oc1ccccc1C(=O)O [Acetylsalicylic acid (ASA), Acetylsalicylic acid] |  | 3.8% | 24.8% | 25.3% | 1.00 | 1.05 | 1.1 | 4.1
CC(C)(C)C(=O)OCOC(=O)c1ccccc1Nc1cccc(C(F)(F)F)c1 [Pivaloyloxymethyl N(3'-trifluorotolyl)-anthranylate] | act as anti-inflammatory agents more than as antinociceptive agents | 40.4% | 40.7% | 32.4% | 1.02 | 8.7 | 0.6 | 3.6
